The term MIC denotes the least concentration at which growth counts as inhibited. A higher MIC goes with weaker potency.

Structures are written as SMILES. Converted amounts (≈) assume the structure as drawn. Some results are limits rather than exact numbers.

The results in this text go back to US10596150B2, “Antifungal agents” (F2G LIMITED, priority 2014, dated 2020).

Experiment [1] deals with A. fumigatus. The experiment in a line: Minimum Inhibitory Concentration (MIC), RPMI medium. The experiment is classed as cell-based. The conditions noted are these: Aspergillus fumigatus, >80% growth inhibition. The protocol: (§1) Between 1 and 5 mgs of the compound were accurately weighed out into a sterile Eppendorf tube. The compound was dissolved in DMSO to give a solution containing 5 mg/mL. Tubes were stored at −20° C. until required.
(§2) On the day of testing thawed solutions were vortex mixed to ensure homogeneity. 30 μL of solution was removed and added to 570 μL of sterile water in a separate sterile Eppendorf. The thoroughly mixed solution was used to prepare a series of doubling dilutions in water, in a deep well plate. Thirteen replicate plates were prepared using a Minitrak by aspirating 20 μL from each well into eleven clear polystyrene 96 well plates.
(§3) Spores of Aspergillus and Scedosporium were harvested from cultures grown on Sabarauds agar for 5 days, and resuspended in PBS/Tween 80 to approx 1×10^7 cfu/mL. Each organism suspension was diluted in RPMI medium, containing 2% glucose and 0.135 M MOPS buffer (pH 7.0) to 0.5-2×10^4 cfu/mL. 80 μL of an organism suspension was added to each well of the plate containing drug dilutions.
(§4) This produced MIC plates with a drug range 50-0.05 mg/L and organism inocula of 1-2×10^4 cfu/mL. All plates were incubated for 24-48 h at 35° C. Growth was assessed by monitoring the optical density at 485 nm for each well. The MIC of a compound is the lowest drug concentration that inhibits growth of an organism by >80% compared with a drug free control.

The subject of experiment [2] is A. terreus 49. The description is as above. The conditions noted are these: Aspergillus terreus, >80% growth inhibition. The format is cell-based. On the procedure:
as §1, §2, §3, §4

The test system of experiment [3] is Scedosporium apiospermum 13486. The description is as above. The format is cell-based. The protocol:
as §1, §2, §3, §4

The test system of experiment [4] is Scedosporium apiospermum 451. Described as above. The experiment is classed as cell-based. The protocol:
as §1, §2, §3, §4

The subject of experiment [5] is Scedosporium apiospermum 4883. Described as above. The format is cell-based. On the procedure: as §1, §2, §3, §4
In experiment [6] the test system is Scedosporium apiospermum 7935. The description is as above. The experiment is classed as cell-based. On the procedure: as §1, §2, §3, §4
Experiment [7] has as its system Scedosporium prolifican 13486. The experiment is described as above. The experiment is classed as cell-based. On the procedure:
as §1, §2, §3, §4

Experiment [8] relates to Scedosporium prolifican 15848. The description is as above. The experiment is classed as cell-based. On the procedure:
as §1, §2, §3, §4

Experiment [9] concerns Scedosporium prolifican 15849. The description is as above. The format is cell-based. The protocol:
as §1, §2, §3, §4

The subject of experiment [10] is Scedosporium prolifican 201. The experiment is described as above. The format is cell-based. On the procedure: as §1, §2, §3, §4
For experiment [11], the system named is Scedosporium prolifican 4883. Described as above. The format is cell-based. The protocol: as §1, §2, §3, §4
Experiment [12] relates to Scedosporium prolifican 7935. Described as above. The format is cell-based. On the procedure: as §1, §2, §3, §4
Experiment [13] deals with Scedosporium prolificans 18389. The experiment is described as above. The experiment is classed as cell-based. Conditions: Lomentospora prolificans. The protocol:
as §1, §2, §3, §4

Experiment [14] deals with Scedosporium prolificans 206. Described as above. The experiment is classed as cell-based. The conditions noted are these: Lomentospora prolificans. The protocol: as §1, §2, §3, §4
The test system of experiment [15] is Scedosporium prolificans 6322. Described as above. The conditions noted are these: Lomentospora prolificans. The format is cell-based. The protocol:
as §1, §2, §3, §4

Experiment [16] has as its system Scedosporium species 15849. The description is as above. The experiment is classed as cell-based. On the procedure: as §1, §2, §3, §4
Experiment [17] deals with A. fumigatus strain A1163. The experiment in a line: Murine survival model of Aspergillus fumigatus infection (survival, kidney burden, serum galactomannan). The experiment is classed as in vivo, male CD-1 mice. The conditions noted are these: for serum galactomannan indices: FIG. 6; for End of study tissue burden (kidney): surviving animals; for survival at end of study: therapy from 24 h post infection for 8 days. The protocol: Murine survival models are frequently used to assess the efficacy of antifungal drugs against Aspergillus. The models used in the development of Example 1 were carried out at Euprotec Ltd (Manchester) a contract research organisation (CRO) with extensive experience in the evaluation of antifungal drugs. The typical model involves the use of groups of 6-10 male CD-1 mice per treatment group. Mice are immunosuppressed with 200 mg/kg cyclophosphamide injected intraperitoneal 3 days prior to infection. A. fumigatus strain A1163 is cultured on Sabourauds agar for 4-6 days at 35° C. Spores are harvested in phosphate buffered saline (PBS)/Tween, the suspension diluted and the number of spores enumerated. Mice are then infected with an intravenous injection of A. fumigatus spores given through the lateral tail vein. The typical inoculum is 6-8×10^4 cfu/mouse and is sufficient to kill all untreated animals by Day 4-6. The animals die of IA and Aspergillus organisms can be detected in many body tissues. Treatment is typically commenced soon after infection but delays of up to 24 h following infection produce a more challenging model. Treatment is continued for 7-9 days. Treatment may be up to 3 times daily using an oral dosing. Following cessation of treatment, animals are observed for 1-2 days, and then sacrificed. Relevant controls treated with oral drug-free vehicle are always included; ideally there should be no survivors in this group. A positive control consisting of an antifungal drug such as Reference Example 10 was used. This compound consistently produces 100% survival at doses of 10 mg/kg b.i.d. dosed by the oral route. Most models are run as temporary neutropenic models where only a single dose of cyclophosphamide is administered.
The fungal burden in the kidney can be determined on animals surviving to the end of the study and this can help provide efficacy discrimination between groups where all animals survive. Tissue burdens are carried out by removing the kidneys from animals when they are culled at the end of the study. These are homogenised in saline and plated onto Sabourauds agar and incubated at 35° C. for 72 h. Aspergillus colonies are counted and the amount of aspergillus per gram of kidney calculated. The results are expressed as colony forming units per gramme (cfu/g). […] However, data from studies where tissue burden has been carried out on untreated animals at day 4 or 5 has shown that tissue burdens are typically in excess of 20,000 cfu/g and may exceed 100,000 cfu/g in some studies.
In some of the survival studies described below serum samples were collected from surviving mice at the end of the study or on mice that succumbed to infection during the study to examine the effect of Example 1 on galactomannan levels and to see if there was a relationship between galactomannan levels and survival.
The galactomannan assays were carried out on serum samples that had been stored frozen at −80° C. Samples were thawed and assayed using a Platelia Aspergillus Ag enzyme-linked immunosorbent assay (ELISA) kit (Biorad). The assay was modified slightly to take into account the small sample volumes available from mice. If assay results were high a repeat test was carried out on a sample diluted in normal mouse serum. The amount of galactomannan in a sample is presented as a galactomannan index. The mean galactomannan index for each group was calculated and is presented graphically against each treatment regimen.
The survival study carried assessed the dose response of Example 1. Example 1 was dosed orally to A. fumigatus infected mice at 2 dose levels 10 mg/kg b.i.d. and 3 mg/kg b.i.d. Therapy was initiated at 24 h post infection and therapy continued for 8 days. At the end of the study kidney burdens were measured on surviving animals. In addition serum samples were taken at the end of the study from all surviving animals and from each animal that died during the course of the study. […]

With `Cc1cc(-c2ccccc2)c(C(=O)C(=O)Nc2ccc(N3CCN(c4ncc(F)cn4)CC3)cc2)n1C` [Example 1, 2-(1,5-dimethyl-3-phenyl-1H-pyrrol-2-yl)-N-(4-(4-(5-fluoropyrimidin-2-yl)piperazin-1-yl)phenyl)-2-oxoacetamide], the MIC in [1] is 0.01 to 0.02 µg/mL (≈ 0.0201 to 0.0401 µM); in experiment [2], not above 0.005 µg/mL; in experiment [3] (Scedosporium apiospermum, 13486) it was 0.02 to 0.04 µg/mL (≈ 0.0401 to 0.0802 µM); in experiment [4] it was 0.005 to 0.01 µg/mL (≈ 0.01 to 0.0201 µM); in [5], 0.01 to 0.02 µg/mL (≈ 0.0201 to 0.0401 µM); in experiment [6], 0.01 to 0.02 µg/mL (≈ 0.0201 to 0.0401 µM). For the same molecule, the minimal inhibitory concentration (MIC) in experiment [7] was in the range of 0.02 to 0.04 µg/mL (≈ 0.0401 to 0.0802 µM); in [8], 0.02 to 0.04 µg/mL (≈ 0.0401 to 0.0802 µM); in experiment [9], 0.04 to 0.06 µg/mL (≈ 0.0802 to 0.12 µM); in experiment [10], 0.02 to 0.04 µg/mL (≈ 0.0401 to 0.0802 µM); in experiment [11], 0.01 to 0.02 µg/mL (≈ 0.0201 to 0.0401 µM); in [12], 0.01 to 0.02 µg/mL (≈ 0.0201 to 0.0401 µM). Moreover, the MIC in [13] was in the range of 0.01 to 0.02 µg/mL (≈ 0.0201 to 0.0401 µM); in experiment [14], 0.02 to 0.04 µg/mL (≈ 0.0401 to 0.0802 µM); in experiment [15], 0.02 to 0.04 µg/mL (≈ 0.0401 to 0.0802 µM); in [16], 0.04 to 0.06 µg/mL (≈ 0.0802 to 0.12 µM). Besides, the “MIC Scedosporium apiospermum 13486” value in experiment [3] is listed as “D (A grade of D represents an MIC of greater than 0.02 mg/L but less than or equal to 0.04 mg/L)”. Besides, the serum galactomannan indices result in experiment [17] (3 mg/kg b.i.d. oral, similar magnitude to untreated animals) is recorded as “correspondingly high”; in experiment [17] (10 mg/kg b.i.d. oral), “very low”. Besides, the “End of study tissue burden (kidney)” value is listed as 3021 cfu/gm in experiment [17] (3 mg/kg b.i.d. oral) and 1114 cfu/gm in experiment [17] (10 mg/kg b.i.d. oral). The “survival at end of study” value in experiment [17] (3 mg/kg b.i.d. oral) is reported as 10%; in experiment [17] (10 mg/kg b.i.d. oral) it was 100%.
